In patent US20060257493A1, “Nanoparticulate delivery systems for treating multi-drug resistance” (priority 2005, published 2006):
Where “and” joins values, the source holds several entries; their conditions need not be identical. Equal entries are not always repeated.

Key:
[1] = tested on: SKOV3TR cells (multi-drug resistant, PTX-selected subculture of SKOV3); assay: cells; assay type: cell-based, human
Procedure: (§1) In in-vitro cytotoxicity studies, the wildtype (drug sensitive (DS)) human ovarian cancer cell line SKOV3 was maintained in culture alongside an SKOV3TR subculture that was selected for multi-drug resistance in the presence of increasing concentrations of PTX. For cytotoxicity studies, 96-well plates were prepared with each cell type seeded at 5000 cells/well. The DS and MDR cells were subjected to dose-response studies against PTX, CER and PTX combined with CER, delivered as free drugs in solution or delivered in PEO-PCL nanoparticles. All studies were performed alongside a negative control (cell growth medium), a positive control (polyethyleneimine, PEI), and proper vehicle controls. Since PTX is a cell-cycle dependant chemotherapeutic, all treatments were left to proceed undisturbed for 6 days, allowing ample time for all cells to enter mitosis. Resulting cell death/viability was measured by the MTS (formazan) assay.

[2] = tested on: SKOV3 cells (wildtype, drug sensitive human ovarian cancer cell line); assay: In-vitro cytotoxicity, MTS (formazan) assay, 6-day treatment; assay type: cell-based; settings: 6 days
Procedure: as §1

SMILES | percent cell viability ([1]; CER alone 20 μM in solution, 6 days) | percent cell viability ([2]; SKOV3, CER alone 10 μM in solution, p<0.05) [%] | percent of MDR cells survived ([1]; 10 nM PTX) [%] | percent cell viability ([1]; 1 μM PTX in solution, 6 days) [%] | viability at 0.1 µM ([1]; Homo sapiens, 144 h, 100 nM PTX in solution, 6 days, read-out: percent cell viability) [%] | viability at 1 µM ([1]; Homo sapiens, 144 h, 1 μM PTX in solution, 6 days, read-out: percent cell viability) [%] | viability at 0.001 µM ([2]; Homo sapiens, SK-OV-3, 144 h, SKOV3, 1 nM PTX in solution, read-out: percent cell viability (cells survived)) [%] | viability at 0.1 µM ([2]; Homo sapiens, SK-OV-3, 144 h, SKOV3, 100 nM PTX in solution, read-out: percent cell viability (cells survived)) [%] | IC50 ([2]; Homo sapiens, SK-OV-3, 144 h, SKOV3, free drug in solution, read-out: IC50 of drug sensitive (SKOV3) cells to PTX in solution) [nM]
CCCCCCCCCCCCC/C=C/[C@@H](O)[C@H](CO)NC(=O)CCCCC [CER, C6-ceramide] | 91.18±7.61% and 91.2±7.6% | 75.08±7.86 |  |  |  |  |  |  | 
CC(=O)O[C@H]1C(=O)[C@@]2(C)[C@H]([C@H](OC(=O)c3ccccc3)[C@]3(O)C[C@H](OC(=O)[C@H](O)[C@@H](NC(=O)c4ccccc4)c4ccccc4)C(C)=C1C3(C)C)[C@]1(OC(C)=O)CO[C@@H]1C[C@@H]2O [PTX, Paclitaxel] |  |  | 100 | 65.6±2.2 | 100 ± 5.78 | 65.7 ± 2.16 | 76 ± 5.92 | 16.4 ± 0.41 | ~5
